Reference: patent US12310963B2, “Pyrazole derivatives and use thereof” (Tarapeutics Science Inc., priority 2019, dated 2025)

Tests used:
[1] = system: pulmonary arterial hypertension (PAH); test: Rat model of pulmonary arterial hypertension (PAH), monocrotaline-induced; type: in vivo; details: 50 mg/kg by gavage, 28 days
Experimental: SCXK (SU) 2017-0001. These rats were fed with conventional pellet feeds (Jiangsu Xietong Bio. Co., Ltd.), and were raised in a clean animal room with 12h/12h light/dark cycle. The rats were fed with foods and drinking water on an ad libitum basis. The temperature was maintained at 20-26° C., and the relative humidity was 40-70%. 120 SD rats were divided into 24 cages with 5 rats per group. […] The animals were treated in strict accordance with animal ethics regulations throughout the experiment. According to the method described in “Pharmaceutical experimental animal models: Fabrication and application” and the Standard Operating Procedure for PAH Model Construction of Model Animal Center, rats were intraperitoneally injected with a solution of 1% monocrotaline (MCT, purchased from Sigma, U.S.A.) once at a dose of 35 mg/kg. On Day 7 after the first injection of MCT, MCT was injected again at a dose of 20 mg/kg. The rats in the normal control group were intraperitoneally injected with an equivalent amount of water as a blank solvent. The specific steps were as follows: After the rats in each of the cages were fasted for 8 hours, each of the rats was weighed and recorded for the basic body weight after fasting; based on the measured basic body weight for each of the rats, the amount of MCT required to be injected for each of the rats was calculated according to the modeling dose of 35 mg/kg; based on the amount of MCT required to be injected for each of the rats, the dose for injection of a 1% MCT solution was calculated; the rats were fixed in a holder and intraperitoneally injected with the 1% MCT solution at the calculated dose; the rats were returned to the cages for routine feeding after the injection. […] The blood gas analyzer was operated following the standard operation procedure. […] Each of the rats was administered by gavage once a day starting from the day of regrouping at Week 4. The rats in the negative control group were daily administered by gavage with an equal volume of methylcellulose as vehicle. The rats in each of the groups were administered by gavage for consecutive 4 weeks (i.e., 28 days). […] The rats were weighed after fasting overnight twice a week. The administration dosage was calculated based on the weighing results. […] After the rats were under anesthesia, the pulmonary arterial pressure and the right ventricular systolic pressure of rats were measured. […] The steps were as follows. A No. 3.5 umbilical vein catheter was connected to a system pressure transducer. A formulated solution of […] sodium (purchased from Sangon) was filled into the transducer and the catheter, and bubbles were discharged. The anesthetized rat was placed on a surgical anatomical plate that is adjustable in its temperature. The temperature of the plate was adjusted to be maintained at about 37° C. The rat was fixed in supine position. The neck skin was cut with scissors to the edge of the clavicle, followed by blunt dissection of subcutaneous tissues and muscles, exposing the right external jugular vein. The adipose tissue on the surface was removed with ophthalmic surgical scissors. The external jugular vein was ligated at the […] surgical thread, and a loose knot was made at the proximal end for reserve. The external jugular vein was gently lifted with ophthalmic tweezers and cut with ophthalmic scissors to make a “V” opening. The catheter was quickly inserted, and the loose knot at the proximal end was tightened slightly to prevent bleeding. […] The catheter was further inserted slowly forward, and entered into the pulmonary artery at about 5 cm. […] The blood was transferred into an anticoagulation tube, and loaded in a blood gas analyzer to determine the indexes of partial pressure of oxygen (pO2), partial pressure of carbon dioxide (pCO2) and blood oxygen saturation (SaO2) in the blood.

[2] = system: BaF3-tel-PDGFRα (stably expressing PDGFRα kinase); test: Growth of BaF3-tel-PDGFRα cells, Cell Titer-Glo, 72 h; type: cell-based, mouse
Source text: (§1) In this example, mouse primary B cell BaF3 (purchased from ATCC, U.S.A.) was used. In addition, in this example, mouse BaF3-tel-PDGFRα (stably expressing PDGFRα kinase), mouse BaF3-tel-PDGFRβ (stably expressing PDGFRβ kinase), BaF3-P210 (stably expressing ABL kinase), BaF3-P210-T315I (stably expressing ABL-T315I kinase), BaF3-FL-BRAF-V600E (stably expressing BRAF-V600E kinase), BaF3-TEL-cKIT (stably expressing cKIT kinase), BaF3-TEL-VEGFR2 (stably expressing VEGFR2 kinase), BaF3-TEL-FGFR2 (stably expressing FGFR2 kinase) were also used. The above-mentioned cell trains were all constructed in our laboratory by the method as follows. The sequences of human BCR-ABL (P210 or P210/T315I mutated), full-length BRAF-V600E, cKIT, VEGFR2, FGFR2, PDGFRα, PDGFRβ kinase region were amplified respectively via PCR, and inserted respectively into a MSCV-Puro vector (purchased from Clontech) having a N-terminal TEL fragment and/or NPM fragment and/or TPR fragment, and stably transferred into mouse BaF3 cells by the retroviral method, and the growth factor IL-3 was removed. Eventually, cell lines which are transferred into proteins depending on PDGFRα, PDGFRβ were obtained.
(§2) In this example, solutions of the test compound at different concentrations (0.000508 μM, 0.00152 μM, 0.00457 μM, 0.0137 μM, 0.0411 μM, 0.123 μM, 0.370 μM, 1.11 μM, 3.33 μM, 10 μM) were added to the above cells. The cells were incubated for 72 hours.

[3] = system: BaF3-tel-PDGFRβ (stably expressing PDGFRβ kinase); test: Growth of BaF3-tel-PDGFRβ cells, Cell Titer-Glo, 72 h; type: cell-based, mouse
Source text: as §1, §2

BaF3 = test: Growth of parental BaF3 cells, Cell Titer-Glo, 72 h; type: cell-based; details: Mus musculus
Source text: as §1, §2

Row | GI50 [2] [nM] | GI50 [3] [nM] | SMILES | RVI (right ventricular hypertrophy index) decrease as compared with the negative control group [1] [%] | GI50 (BaF3) [nM]
1 | – | – | COc1ccccc1Oc1c(NS(=O)(=O)c2ccc(C(C)(C)C)cc2)nc(-c2ncccn2)nc1OCCO [bosentan, reference compound] | 15.7 | –
2 | < 10 | < 10 | Cc1ccc(NC(=O)c2cncc(C(F)(F)F)c2)cc1-n1cc(-c2cncc(N3CCN(C)CC3)c2)nn1 [Compound 20, N-(4-methyl-3-(4-(5-(4-methylpiperazin-1-yl)pyridin-3-yl)-1H-1,2,3-triazol-1-yl)phenyl)-5-(trifluoromethyl)nicotinamide] | – | 5070
